Reference: PubChem BioAssay AID248 (DTP/NCI, 2004)
Several values for one entry are separate records, joined by “and”; a condition that tells them apart may be missing. Equal values may be shown once. Toxic doses and inconclusive results are not listed.

Test system: L1210 leukemia ip in BDF1 mice, survival T/C
Assay: NCI In Vivo Anticancer Drug Screen. Data for tumor model L1210 Leukemia (intraperitoneal) in B6D2F1 (BDF1) mice
Conditions: higher = longer survival
Procedure, shortened: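 Survival endpoint. Drug-treated group vs vehicle group, expressed as T divided by C. Tumor passaged by transplantation.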

Compound: C[n+]1c2ccccc2c(Nc2ccc(NS(=O)(=O)CCCCN=C(N)N)cc2)c2ccc(N)cc21
- T/C (endpoint: mean survival time, dose: 0.5 mg/kg/injection, schedule: Q03HX008 (ip), vehicle: water): 167 % of control
- T/C (endpoint: mean survival time, dose: 1.5 mg/kg/injection, schedule: Q01DX009 (ip), vehicle: water): 186 % of control
- T/C (endpoint: mean survival time, dose: 2.0 mg/kg/injection, schedule: Q03HX008 (ip), vehicle: water): 160 % of control
- T/C (endpoint: mean survival time, dose: 3.0 mg/kg/injection, schedule: Q01DX009 (ip), vehicle: water): 160 % of control and 212 % of control
- T/C (endpoint: mean survival time, dose: 3.0 mg/kg/injection, schedule: Q03HX008 (ip), vehicle: water): 240 % of control
- T/C (endpoint: mean survival time, dose: 3.12 mg/kg/injection, schedule: Q04DX003 (ip), vehicle: water): 191 % of control
- T/C (endpoint: mean survival time, dose: 6.0 mg/kg/injection, schedule: Q01DX009 (ip), vehicle: water): 176 % of control and 218 % of control
- T/C (endpoint: mean survival time, dose: 6.0 mg/kg/injection, schedule: Q03HX008 (ip), vehicle: water): 327 % of control
- T/C (endpoint: mean survival time, dose: 6.25 mg/kg/injection, schedule: Q04DX003 (ip), vehicle: water): 152 % of control and 170 % of control
- T/C (endpoint: mean survival time, dose: 12.0 mg/kg/injection, schedule: Q01DX009 (ip), vehicle: water): 269 % of control
- T/C (endpoint: mean survival time, dose: 12.5 mg/kg/injection, schedule: Q01DX001 (ip), vehicle: water): 186 % of control
- T/C (endpoint: mean survival time, dose: 12.5 mg/kg/injection, schedule: Q04DX003 (ip), vehicle: water): 171 % of control and 202 % of control
- T/C (endpoint: mean survival time, dose: 25.0 mg/kg/injection, schedule: Q01DX001 (ip), vehicle: water): 207 % of control
- T/C (endpoint: mean survival time, dose: 25.0 mg/kg/injection, schedule: Q04DX003 (ip), vehicle: water): 194 % of control and 225 % of control
- T/C (endpoint: median survival time, dose: 3.0 mg/kg/injection, schedule: Q01DX009 (oral), vehicle: water): 97 % of control
- T/C (endpoint: median survival time, dose: 6.0 mg/kg/injection, schedule: Q01DX009 (oral), vehicle: water): 103 % of control
- T/C (endpoint: median survival time, dose: 6.0 mg/kg/injection, schedule: Q01DX009 (sc), vehicle: water): 166 % of control
- T/C (endpoint: median survival time, dose: 12.0 mg/kg/injection, schedule: Q01DX009 (oral), vehicle: water): 98 % of control
- T/C (endpoint: median survival time, dose: 12.0 mg/kg/injection, schedule: Q01DX009 (sc), vehicle: water): 163 % of control
- T/C (endpoint: median survival time, dose: 24.0 mg/kg/injection, schedule: Q01DX009 (oral), vehicle: water): 94 % of control
- T/C (endpoint: median survival time, dose: 48.0 mg/kg/injection, schedule: Q01DX009 (oral), vehicle: water): 95 % of control

Compound: COC(=O)Cc1ccc([N+](=O)[O-])cc1[N+](=O)[O-]
- T/C (endpoint: mean survival time, dose: 100.0 mg/kg/injection, schedule: Q04DX003 (ip), vehicle: saline): 101 % of control
- T/C (endpoint: mean survival time, dose: 200.0 mg/kg/injection, schedule: Q04DX003 (ip), vehicle: saline): 102 % of control
- T/C (endpoint: mean survival time, dose: 400.0 mg/kg/injection, schedule: Q04DX003 (ip), vehicle: saline): 93 % of control

Compound: O=c1oc2ccc(Cl)cc2c2c1OC(c1ccccc1)CN2 (stereo unspecified)
- T/C (endpoint: mean survival time, dose: 100.0 mg/kg/injection, schedule: Q01DX001 (ip), vehicle: Klucel (hydroxypropylcellulose) (HPC)): 96 % of control
- T/C (endpoint: mean survival time, dose: 200.0 mg/kg/injection, schedule: Q01DX001 (ip), vehicle: Klucel (hydroxypropylcellulose) (HPC)): 90 % of control
- T/C (endpoint: mean survival time, dose: 400.0 mg/kg/injection, schedule: Q01DX001 (ip), vehicle: Klucel (hydroxypropylcellulose) (HPC)): 91 % of control

Compound: c1ccc(N=Nc2ccncc2)cc1
- T/C (endpoint: mean survival time, dose: 6.25 mg/kg/injection, schedule: Q04DX003 (ip), vehicle: saline with Tween-80): 101 % of control
- T/C (endpoint: mean survival time, dose: 12.5 mg/kg/injection, schedule: Q04DX003 (ip), vehicle: saline with Tween-80): 92 % of control
- T/C (endpoint: mean survival time, dose: 25.0 mg/kg/injection, schedule: Q04DX003 (ip), vehicle: saline with Tween-80): 97 % of control

Compound: CCN(Cc1ccccc1)C(=O)Nc1cccc(Cl)c1
- T/C (endpoint: mean survival time, dose: 100.0 mg/kg/injection, schedule: Q01DX009 (ip), vehicle: other): 106 % of control
- T/C (endpoint: mean survival time, dose: 200.0 mg/kg/injection, schedule: Q01DX009 (ip), vehicle: other): 108 % of control
- T/C (endpoint: mean survival time, dose: 400.0 mg/kg/injection, schedule: Q01DX009 (ip), vehicle: other): 105 % of control

Compound: Cc1cnc(NC(N)=O)nc1-c1ccccc1O
- T/C (endpoint: mean survival time, dose: 100.0 mg/kg/injection, schedule: Q04DX002 (ip), vehicle: Klucel (hydroxypropylcellulose) (HPC)): 95 % of control
- T/C (endpoint: mean survival time, dose: 200.0 mg/kg/injection, schedule: Q04DX002 (ip), vehicle: Klucel (hydroxypropylcellulose) (HPC)): 91 % of control
- T/C (endpoint: mean survival time, dose: 400.0 mg/kg/injection, schedule: Q04DX002 (ip), vehicle: Klucel (hydroxypropylcellulose) (HPC)): 87 % of control

Compound: COCc1c(C)c(C)cc(C)c1C
- T/C (endpoint: mean survival time, dose: 100.0 mg/kg/injection, schedule: Q01DX009 (ip), vehicle: Klucel (hydroxypropylcellulose) (HPC)): 96 % of control
- T/C (endpoint: mean survival time, dose: 200.0 mg/kg/injection, schedule: Q01DX009 (ip), vehicle: Klucel (hydroxypropylcellulose) (HPC)): 96 % of control
- T/C (endpoint: mean survival time, dose: 400.0 mg/kg/injection, schedule: Q01DX009 (ip), vehicle: Klucel (hydroxypropylcellulose) (HPC)): 91 % of control

Compound: CCc1ccc(C2=C(O)C(=O)C(c3ccccc3)=C(O)C2=O)cc1
- T/C (endpoint: mean survival time, dose: 12.5 mg/kg/injection, schedule: Q01DX009 (ip), vehicle: acetone): 95 % of control
- T/C (endpoint: mean survival time, dose: 25.0 mg/kg/injection, schedule: Q01DX009 (ip), vehicle: acetone): 90 % of control
- T/C (endpoint: mean survival time, dose: 33.0 mg/kg/injection, schedule: Q01DX009 (ip), vehicle: acetone): 96 % of control
- T/C (endpoint: mean survival time, dose: 33.0 mg/kg/injection, schedule: Q01DX009 (ip), vehicle: saline): 96 % of control
- T/C (endpoint: mean survival time, dose: 50.0 mg/kg/injection, schedule: Q01DX009 (ip), vehicle: acetone): 101 % of control
- T/C (endpoint: mean survival time, dose: 50.0 mg/kg/injection, schedule: Q01DX009 (ip), vehicle: saline): 97 % of control
- T/C (endpoint: mean survival time, dose: 75.0 mg/kg/injection, schedule: Q01DX009 (ip), vehicle: acetone): 118 % of control
